Data: PubChem BioAssay AID2060503 (Molecular Pharmacology Branch, DTP, NCI, 2025)
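Further: spheroids exposed to agents for 7 days before readout; percent viability relative to DMSO vehicle control taken as 100%.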

The molecules below were run on 817829-284-R-J1-PDC complex spheroids, viability (assay: Anticancer human tumor 817829-284-R-J1-PDC patient-derived colon adenocarcinoma cell line growth inhibition [GQUAD]). Conditions: second compound 10 µM; first compound 0.0316 µM; hits give low values.
Outline: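 Viability of tumor cells grown as complex spheroids with endothelial and stromal cells, exposed to drug combinations. Top concentration at or near clinical Cmax (else 10 microM), diluted in half-log increments.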
Molecule C=CCn1c(=O)c2cnc(Nc3ccc(N4CCN(C)CC4)cc3)nc2n1-c1cccc(C(C)(C)O)n1 + Cc1cnc(CNC(=O)c2c(=O)c3ccc(N4CCCN(C)CC4)nc3n3c2sc2ccccc23)cn1 has a viability, T/C of 0.11%.
CC(C)(O)C1CCC(Nc2ccc3ncc(-c4cccc(C(F)(F)F)c4)n3n2)CC1 (configuration not stated) + Cc1cnc(CNC(=O)c2c(=O)c3ccc(N4CCCN(C)CC4)nc3n3c2sc2ccccc23)cn1 showed a viability, T/C of 0.11%.
CCCS(=O)(=O)Nc1ccc(F)c(C(=O)c2c[nH]c3ncc(-c4ccc(Cl)cc4)cc23)c1F + Cc1cnc(CNC(=O)c2c(=O)c3ccc(N4CCCN(C)CC4)nc3n3c2sc2ccccc23)cn1 showed a viability, T/C of 0.09%.
For Cc1[nH]c2ccccc2c1CCNCc1ccc(/C=C/C(=O)NO)cc1 + Cc1cnc(CNC(=O)c2c(=O)c3ccc(N4CCCN(C)CC4)nc3n3c2sc2ccccc23)cn1, the viability, T/C was 0.18%.
For O=C(NO)c1cnc(N2CCN(S(=O)(=O)c3ccc4ccccc4c3)CC2)nc1 + Cc1cnc(CNC(=O)c2c(=O)c3ccc(N4CCCN(C)CC4)nc3n3c2sc2ccccc23)cn1, the viability, T/C was 0.07%.

Same assay, conditions: second compound 10 µM; first compound 0.0999 µM; hits give low values
Work on Cc1[nH]c2ccccc2c1CCNCc1ccc(/C=C/C(=O)NO)cc1 + Cc1cnc(CNC(=O)c2c(=O)c3ccc(N4CCCN(C)CC4)nc3n3c2sc2ccccc23)cn1 yielded a viability, T/C of 0.2%.

Same assay, conditions: second compound 10 µM; first compound 0.1 µM; hits give low values
For C#Cc1c(F)ccc2cc(O)cc(-c3ncc4c(N5CC6CCC(C5)N6)nc(OCC56CCCN5CC(F)C6)nc4c3F)c12 (configuration not stated) + Cc1cnc(CNC(=O)c2c(=O)c3ccc(N4CCCN(C)CC4)nc3n3c2sc2ccccc23)cn1, the viability, T/C was 0.18%.
C=CCn1c(=O)c2cnc(Nc3ccc(N4CCN(C)CC4)cc3)nc2n1-c1cccc(C(C)(C)O)n1 + Cc1cnc(CNC(=O)c2c(=O)c3ccc(N4CCCN(C)CC4)nc3n3c2sc2ccccc23)cn1 was tested, and the viability, T/C was 0.15%.
CC(C)(O)C1CCC(Nc2ccc3ncc(-c4cccc(C(F)(F)F)c4)n3n2)CC1 (configuration not stated) + Cc1cnc(CNC(=O)c2c(=O)c3ccc(N4CCCN(C)CC4)nc3n3c2sc2ccccc23)cn1 gave a viability, T/C of 0.13%.
With CCCS(=O)(=O)Nc1ccc(F)c(C(=O)c2c[nH]c3ncc(-c4ccc(Cl)cc4)cc23)c1F + Cc1cnc(CNC(=O)c2c(=O)c3ccc(N4CCCN(C)CC4)nc3n3c2sc2ccccc23)cn1 the viability, T/C was 0.13%.
With O=C(NO)c1cnc(N2CCN(S(=O)(=O)c3ccc4ccccc4c3)CC2)nc1 + Cc1cnc(CNC(=O)c2c(=O)c3ccc(N4CCCN(C)CC4)nc3n3c2sc2ccccc23)cn1 the viability, T/C was 0.11%.

Same assay, conditions: second compound 10 µM; first compound 0.316 µM; hits give low values
C#Cc1c(F)ccc2cc(O)cc(-c3ncc4c(N5CC6CCC(C5)N6)nc(OCC56CCCN5CC(F)C6)nc4c3F)c12 (configuration not stated) + Cc1cnc(CNC(=O)c2c(=O)c3ccc(N4CCCN(C)CC4)nc3n3c2sc2ccccc23)cn1 showed a viability, T/C of 0.19%.
Molecule C=CCn1c(=O)c2cnc(Nc3ccc(N4CCN(C)CC4)cc3)nc2n1-c1cccc(C(C)(C)O)n1 + Cc1cnc(CNC(=O)c2c(=O)c3ccc(N4CCCN(C)CC4)nc3n3c2sc2ccccc23)cn1 has a viability, T/C of 0.15%.
With CC(C)(O)C1CCC(Nc2ccc3ncc(-c4cccc(C(F)(F)F)c4)n3n2)CC1 (configuration not stated) + Cc1cnc(CNC(=O)c2c(=O)c3ccc(N4CCCN(C)CC4)nc3n3c2sc2ccccc23)cn1 the viability, T/C was 0.17%.
With CCCS(=O)(=O)Nc1ccc(F)c(C(=O)c2c[nH]c3ncc(-c4ccc(Cl)cc4)cc23)c1F + Cc1cnc(CNC(=O)c2c(=O)c3ccc(N4CCCN(C)CC4)nc3n3c2sc2ccccc23)cn1 the viability, T/C was 0.17%.
Cc1[nH]c2ccccc2c1CCNCc1ccc(/C=C/C(=O)NO)cc1 + Cc1cnc(CNC(=O)c2c(=O)c3ccc(N4CCCN(C)CC4)nc3n3c2sc2ccccc23)cn1 gave a viability, T/C of 0.2%.
For O=C(NO)c1cnc(N2CCN(S(=O)(=O)c3ccc4ccccc4c3)CC2)nc1 + Cc1cnc(CNC(=O)c2c(=O)c3ccc(N4CCCN(C)CC4)nc3n3c2sc2ccccc23)cn1, the viability, T/C was 0.13%.

Same assay, conditions: second compound 10 µM; first compound 1 µM; hits give low values
With C#Cc1c(F)ccc2cc(O)cc(-c3ncc4c(N5CC6CCC(C5)N6)nc(OCC56CCCN5CC(F)C6)nc4c3F)c12 (configuration not stated) + Cc1cnc(CNC(=O)c2c(=O)c3ccc(N4CCCN(C)CC4)nc3n3c2sc2ccccc23)cn1 the viability, T/C was 0.15%.
With C=CCn1c(=O)c2cnc(Nc3ccc(N4CCN(C)CC4)cc3)nc2n1-c1cccc(C(C)(C)O)n1 + Cc1cnc(CNC(=O)c2c(=O)c3ccc(N4CCCN(C)CC4)nc3n3c2sc2ccccc23)cn1 the viability, T/C was 0.14%.
In the case of CC(C)(O)C1CCC(Nc2ccc3ncc(-c4cccc(C(F)(F)F)c4)n3n2)CC1 (configuration not stated) + Cc1cnc(CNC(=O)c2c(=O)c3ccc(N4CCCN(C)CC4)nc3n3c2sc2ccccc23)cn1, the viability, T/C is reported as 0.12%.
In the case of CCCS(=O)(=O)Nc1ccc(F)c(C(=O)c2c[nH]c3ncc(-c4ccc(Cl)cc4)cc23)c1F + Cc1cnc(CNC(=O)c2c(=O)c3ccc(N4CCCN(C)CC4)nc3n3c2sc2ccccc23)cn1, the viability, T/C is reported as 0.16%.
With O=C(NO)c1cnc(N2CCN(S(=O)(=O)c3ccc4ccccc4c3)CC2)nc1 + Cc1cnc(CNC(=O)c2c(=O)c3ccc(N4CCCN(C)CC4)nc3n3c2sc2ccccc23)cn1 the viability, T/C was 0.09%.

Same assay, conditions: second compound 10 µM; first compound 3.16 µM; hits give low values
Molecule C#Cc1c(F)ccc2cc(O)cc(-c3ncc4c(N5CC6CCC(C5)N6)nc(OCC56CCCN5CC(F)C6)nc4c3F)c12 (configuration not stated) + Cc1cnc(CNC(=O)c2c(=O)c3ccc(N4CCCN(C)CC4)nc3n3c2sc2ccccc23)cn1 has a viability, T/C of 0.18%.
With C=CCn1c(=O)c2cnc(Nc3ccc(N4CCN(C)CC4)cc3)nc2n1-c1cccc(C(C)(C)O)n1 + Cc1cnc(CNC(=O)c2c(=O)c3ccc(N4CCCN(C)CC4)nc3n3c2sc2ccccc23)cn1 the viability, T/C was 0.17%.
For CC(C)(O)C1CCC(Nc2ccc3ncc(-c4cccc(C(F)(F)F)c4)n3n2)CC1 (configuration not stated) + Cc1cnc(CNC(=O)c2c(=O)c3ccc(N4CCCN(C)CC4)nc3n3c2sc2ccccc23)cn1, the viability, T/C was 0.19%.
CCCS(=O)(=O)Nc1ccc(F)c(C(=O)c2c[nH]c3ncc(-c4ccc(Cl)cc4)cc23)c1F + Cc1cnc(CNC(=O)c2c(=O)c3ccc(N4CCCN(C)CC4)nc3n3c2sc2ccccc23)cn1 gave a viability, T/C of 0.17%.
O=C(NO)c1cnc(N2CCN(S(=O)(=O)c3ccc4ccccc4c3)CC2)nc1 + Cc1cnc(CNC(=O)c2c(=O)c3ccc(N4CCCN(C)CC4)nc3n3c2sc2ccccc23)cn1 showed a viability, T/C of 0.14%.

Same assay, conditions: second compound 10 µM; first compound 10 µM; hits give low values
Molecule C#Cc1c(F)ccc2cc(O)cc(-c3ncc4c(N5CC6CCC(C5)N6)nc(OCC56CCCN5CC(F)C6)nc4c3F)c12 (configuration not stated) + Cc1cnc(CNC(=O)c2c(=O)c3ccc(N4CCCN(C)CC4)nc3n3c2sc2ccccc23)cn1 has a viability, T/C of 0.16%.
In the case of C=CCn1c(=O)c2cnc(Nc3ccc(N4CCN(C)CC4)cc3)nc2n1-c1cccc(C(C)(C)O)n1 + Cc1cnc(CNC(=O)c2c(=O)c3ccc(N4CCCN(C)CC4)nc3n3c2sc2ccccc23)cn1, the viability, T/C is reported as 0.2%.
CC(C)(O)C1CCC(Nc2ccc3ncc(-c4cccc(C(F)(F)F)c4)n3n2)CC1 (configuration not stated) + Cc1cnc(CNC(=O)c2c(=O)c3ccc(N4CCCN(C)CC4)nc3n3c2sc2ccccc23)cn1 showed a viability, T/C of 0.18%.
With CCCS(=O)(=O)Nc1ccc(F)c(C(=O)c2c[nH]c3ncc(-c4ccc(Cl)cc4)cc23)c1F + Cc1cnc(CNC(=O)c2c(=O)c3ccc(N4CCCN(C)CC4)nc3n3c2sc2ccccc23)cn1 the viability, T/C was 0.17%.
O=C(NO)c1cnc(N2CCN(S(=O)(=O)c3ccc4ccccc4c3)CC2)nc1 + Cc1cnc(CNC(=O)c2c(=O)c3ccc(N4CCCN(C)CC4)nc3n3c2sc2ccccc23)cn1 showed a viability, T/C of 0.15%.
